Six molecules from patent publication US10543157B2, “Method of treating a hair disorder with N-hydroxypyridinones” (The Procter & Gamble Company, priority 2016, dated 2020) can be followed below.

Broadly, the EC50 is the concentration that produces a half-maximal response. A lower EC50 goes with a more potent agent.

Counter-ions that a name gives are not always drawn.

For one data set, the system named is HIF-1α. The data set is described as follows: In-vitro cell based HIF-1 stabilization (ELISA). The note with it: human dermal fibroblasts, 4 hrs treatment, normalized to cytochrome c. From the text: (§1) Wherein R′ and R″ are independently either hydrogen or a substituted or unsubstituted hydrocarbon group having between 1 and 20 carbon atoms. Compounds of this class can be synthesized following the procedure disclosed in U.S. Pat. No. 5,675,013. In certain aspects, the 2-pyridinol-N-oxide compound is 1-hydroxy-6-(octyloxy)-2(1H)-Pyridinone. This compound can be synthesized following the procedure disclosed in U.S. Pat. No. 5,675,013. Methods In-Vitro Cell Based Method for Measuring HIF-1 Stabilization and VEGF Induction: Human dermal fibroblasts are maintained and treated in Dulbecco's Modified Eagle Medium (DMEM) supplemented with 10% fetal bovine serum (FBS) and 1% penicillin/streptomycin. For HIF and VEGF experiments, cells are plated at 10,000 cells per well in 96-well plates. After two days, cells are treated with materials of interest solubilized in DMSO. DMSO concentration in media never exceeded 0.5%. Treatment times are 4 hrs for HIF-1a and 24 hrs for VEGF. Analytes are assayed via ELISA. After 4 hrs treatment, cells are fixed and assayed for HIF-1a using the Human/Mouse Total HIF-1a Immunoassay (R&D Systems) according to manufacturer instructions. After 24 hrs treatment, spent culture media are harvested and assayed for VEGF using the V-PLEX Human VEGF Kit (MSD) according to manufacturer instructions. HIF-1a and VEGF signals are normalized to cytochrome c signal and ATP signal, respectively, and then compared to that of untreated control. Half-maximal effective concentrations of materials are calculating using GraphPad Prism version 6 software or any other suitable software.
In general terms: ELISA stands for enzyme-linked immunosorbent assay.

For a further data set, the system named is VEGF. Briefly: In-vitro cell based VEGF induction (ELISA). The note with it: human dermal fibroblasts, 24 hrs treatment, spent media, normalized to ATP.
From the text: as §1

Data set [1] has as its system scalp hair (target area hair count). The data set is described as follows: Clinical study #2, split-scalp, total hair count. Type of data set: in vivo, human. The note with it: topical twice a day. As for the experimental part: (§2) Two randomized, double-blind, vehicle-controlled split-scalp studies are conducted as follows:
(§3) Subjects have the imaging sites located and tattoos placed within the imaging sites to mark the area that will be used for image capture. Three days post-tattoo placement, subjects will begin the pretreatment phase during which they applied their pretreatment products on the designated side of their scalp (left/right) for 11 days as a way of training subjects on the tonic application procedures. After the pretreatment phase has been completed, qualified subjects begin the 16-week treatment phase. Within each treatment group, left/right product assignments are randomized (tonic product and vehicle). In the first study subjects applied the assigned tonic product to the designated side of the scalp twice a day. The morning before each site visit, subjects wash and dry their hair and refrain from applying their test products and any styling aides until after their study visit has been completed. Subjects are instructed to wash hair at least every other day with a standard 2-in-1 shampoo during the entire washout and treatment phases. In the second study, after the pretreatment phase has been completed, subjects had their hair washed using the standard shampoo (½ head washing procedure) by a trained operator and blown dry by themselves. After washing hair (no treatment products and no styling products after washing), the two 1.8×1.8 cm imaging sites on the midfrontal/parietal scalp are clipped for hair count analysis as described below. Site staff then apply the two treatment products to the assigned sites (3×3 cm) on the scalp. Subjects return to the study site later in the day and site staff apply the 2nd application of treatment products for that day (i.e. twice a day tonic application) to each site. The following day, the subjects return to the test site and have their hair washed using the standard shampoo (½ head washing procedure) by site staff and blown dry themselves. Images of the two sites are captured for anagen hair count.
[…] study site in the morning and had their hair washed by site staff (½ head washing procedure) and blown dry by themselves in the morning before the 1st application of treatment products of the day. Site staff then apply the two treatment products to the assigned sites (3×3 cm) on the scalp. Subjects return to the study site later in the day and site staff apply the 2nd application of the treatment products for that day (i.e. twice a day tonic application) to each site.
An efficacy end point of these studies is the change from baseline in target area hair count (hairs/cm2) at week 8 and/or 16, as applicable. […]

For data set [2] the test system is unchanged. Briefly: Clinical study #1, split-scalp, total hair count. Type of data set: in vivo, human. The following applies: for Total Hair Count Change from Baseline Mean +/− SE / Total Hair Count Difference of CFBs (active minus vehicle) Mean +/− SE: topical twice a day, test compound 1%, minoxidil 2% (Rogaine for Women). The method, then:
as §2
Two weeks prior to the Baseline visit, subjects are randomized into one of the 2 treatment groups appearing in the table below.
as §3
(§4) An efficacy end point of these studies is the change from baseline in target area hair count (hairs/cm2) at week 8 and/or 16, as applicable. Initial hair count and growth phase assessments are performed at baseline and at weeks 8 and 16, as applicable, in a designated target area of the scalp identified by the mini tattoo applied at baseline. The assessments are performed using a 1.8-cm2 square template centered over the mini tattoo. Hair within the template is clipped to approximately 1 mm in length. Photographic imaging equipment is supplied by Canfield Scientific Inc (Fairfield, N.J.) and is used to take macrophotographs of the shaved target area. The equipment comprises a Nikon D-SLR camera body (Nikon Corporation, Tokyo, Japan), Nikkor 60 MM F2.8 lens (Nikon Corporation), and a Canfield Epiflash (Canfield Scientific Inc, Fairfield, N.J.) with a glass contact plate and is preset and locked for magnification, f-stop, and exposure control. The analysis of the hair count photographs is performed by Canfield's core imaging laboratory. (ref: Harness J A, Kohut B, Garner J, Canfield W, Canfield D, Bertolino A. Evaluation of hair count and thickness measurements in male and female pattern hair loss using a computer-assisted technique. Poster presented at: European Hair Research Society; Zurich, Switzerland, Jul. 7-9, 2005.) The same 1 cm^2 area is mapped among the baseline, week 8, and week 16 images using the dot tattoo as a reference. Each image is then assigned a definite tracking number and randomized before analysis. The compliant and validated Canfield Hair Metrix (Canfield Scientific Inc, Fairfield, N.J.) image analysis application measures the total number of hair fibers and number of telogen and anagen hair. […]

In data set [3] the test system is anagen (growing) hairs of scalp. The data set is described as follows: Clinical study #2, anagen hair count. It counts as in vivo, human. The following applies: for ANAGEN Hair counts Change from Baseline Mean +/− SE / ANAGEN Hair counts Difference of CFBs Mean +/− SE: time not given in table (text: week 8).
From the text: as §3
(§5) The following day and for every day during the 8-week treatment phase subjects returned to the study site in the morning and had their hair washed by site staff (½ head washing procedure) and blown dry by themselves in the morning before the 1st application of treatment products of the day. Site staff then apply the two treatment products to the assigned sites (3×3 cm) on the scalp. Subjects return to the study site later in the day and site staff apply the 2nd application of the treatment products for that day (i.e. twice a day tonic application) to each site.
An efficacy end point of these studies is the change from baseline in target area hair count (hairs/cm2) at week 8 and/or 16, as applicable. Initial hair count and growth phase assessments are performed at baseline and at weeks 8 and 16, as applicable, in a designated target area of the scalp identified by the mini tattoo applied at baseline. The assessments are performed using a 1.8-cm2 square template centered over the mini tattoo. Hair within the template is clipped to approximately 1 mm in length. Photographic imaging equipment is supplied by Canfield Scientific Inc (Fairfield, N.J.) and is used to take macrophotographs of the shaved target area. The equipment comprises a Nikon D-SLR camera body (Nikon Corporation, Tokyo, Japan), Nikkor 60 MM F2.8 lens (Nikon Corporation), and a Canfield Epiflash (Canfield Scientific Inc, Fairfield, N.J.) with a glass contact plate and is preset and locked for magnification, f-stop, and exposure control. […]

In data set [4] the test system is telogen (resting) hairs of scalp. The data set is described as follows: Clinical study #2, telogen hair count. Type of data set: in vivo, human. The following applies: for TELOGEN Hair counts Change from Baseline Mean +/− SE / TELOGEN Hair counts Difference of CFBs Mean +/− SE: time not given in table (text: week 8).
From the text: as §3, §5
as §4, with “reference.” for “reference. Each image is then assigned a definite tracking number and randomized before analysis. The compliant and validated Canfield Hair Metrix (Canfield Scientific Inc, Fairfield, N.J.) image analysis application measures the total number of hair fibers and number of telogen and anagen hair.”

The mark [5] stands for this setting: Study #2, 16 weeks (so in the source).
The mark [6] stands for this setting: versus vehicle (minoxidil: versus baseline and vehicle), week 8.

In the case of `Cc1cc(CC(C)CC(C)(C)C)n(O)c(=O)c1` (stereo not shown) [1-Hydroxy-4-methyl-6-(2,4,4-trimethylpentyl)pyridin-2(1H)-one ethanolammonium salt], the EC50 came out at 0.4 µM in the data set with HIF-1α and 2.1 µM with VEGF.
Consider `CCOC(=O)c1ccnc(C(=O)OCC)c1` [2,4-DPD, 2,4-pyridinedicarboxylic acid, diethyl ester, reference compound], for which, in the data set on HIF-1α (Fibroblast), the EC50 turned out to be 406 µM. In addition, the “EC50 VEGF Induction” value in the data set with VEGF was “no response”.
In the case of `Cc1cc(C2CCCCC2)n(O)c(=O)c1` [6-cyclohexyl-1-hydroxy-4-methyl-2(1H)-pyridinone], the EC50 is 3.9 µM in the data set on HIF-1α (Fibroblast) and 2.5 µM in the data set with VEGF (Fibroblast).
On to `Nc1cc(N2CCCCC2)nc(N)[n+]1[O-]` [Minoxidil, reference compound], for which, in data set [1] (setting [5]), the “Total Hair Count Change from Baseline Mean +/− SE” value is listed as 12.93 +/− 1.77 hairs/cm^2 and the “Total Hair Count Difference of CFBs (active minus vehicle) Mean +/− SE” value is listed as 5.76 +/− 2.1 hairs/cm^2. In addition, in data set [2] (Study #1, 8 weeks), the “Total Hair Count Change from Baseline Mean +/− SE” value was 14.3 +/− 2.98 hairs/cm^2 and the “Total Hair Count Difference of CFBs (active minus vehicle) Mean +/− SE” value is 11.29 +/− 3.02 hairs/cm^2. For the same molecule, in data set [2] (Study #1, 16 weeks), the “Total Hair Count Change from Baseline Mean +/− SE” value is 14.83 +/− 3.53 hairs/cm^2 and the “Total Hair Count Difference of CFBs (active minus vehicle) Mean +/− SE” value was 13.45 +/− 3.47 hairs/cm^2. In data set [3], the “ANAGEN Hair counts Change from Baseline Mean +/− SE” value was 8.66 +/− 1.75 hairs/cm^2 and the “ANAGEN Hair counts Difference of CFBs Mean +/− SE” value is recorded as 7.79 +/− 1.87 hairs/cm^2. Further, in data set [4], the “TELOGEN Hair counts Change from Baseline Mean +/− SE” value is recorded as −4.07 +/− 1.71 hairs/cm^2 and the “TELOGEN Hair counts Difference of CFBs Mean +/− SE” value is −7.45 +/− 1.85 hairs/cm^2.
Molecule `CCCCCCCCOc1cccc(=O)n1O` [N-Hydroxy-6-octyloxypyridine-2(1H)one, ethanolamine salt] had an EC50 with VEGF of 13 µM.
As to `CCCCCCCCOc1cccc(=O)n1O` [N-Hydroxy-6-octyloxypyridine-2(1H)one], the EC50 in the data set on HIF-1α (Fibroblast) turned out to be 17 µM. For the same molecule, in the data set on VEGF (Fibroblast), the EC50 is 30 µM. In addition, in data set [1] (Study #2, 8 weeks, 0.9%), the “Total Hair Count Change from Baseline Mean +/− SE” value was 10.13 +/− 1.15 hairs/cm^2 and the “Total Hair Count Difference of CFBs (active minus vehicle) Mean +/− SE” value is 3.35 +/− 1.37 hairs/cm^2. Besides, in data set [2] (Study #1, 8 weeks), the “Total Hair Count Change from Baseline Mean +/− SE” value is recorded as 6.15 +/− 1.91 hairs/cm^2 and the “Total Hair Count Difference of CFBs (active minus vehicle) Mean +/− SE” value is listed as 3.94 +/− 1.71 hairs/cm^2. For the same molecule, in data set [2] (Study #1, 16 weeks), the “Total Hair Count Change from Baseline Mean +/− SE” value is given as 3.11 +/− 1.79 hairs/cm^2 and the “Total Hair Count Difference of CFBs (active minus vehicle) Mean +/− SE” value is on record as 3.27 +/− 1.73 hairs/cm^2. Further, the “hair count response as share of the minoxidil response, on average” value in data set [2] (Study #1, average of week 8 and 16) amounted to 29%. The “hair count from baseline and above vehicle treatment (in words)” value in data set [2] (Study #1, week 8 & 16 (p=0.019 and p=0.045)) is “significant increase in hair count”. In data set [3], the “ANAGEN Hair counts Change from Baseline Mean +/− SE” value is listed as 3.82 +/− 1.14 hairs/cm^2 and the “ANAGEN Hair counts Difference of CFBs Mean +/− SE” value was 3.18 +/− 1.22 hairs/cm^2. The “number of anagen (growing) hairs (in words)” value in data set [3] (setting [6]) was “significant increase in growing hairs”. In addition, the “telogen effluvium (shedding)” value in data set [4] (conclusion drawn from telogen counts) was “will not cause telogen effluvium”. In data set [4], the “TELOGEN Hair counts Change from Baseline Mean +/− SE” value is recorded as 2.96 +/− 1.11 hairs/cm^2 and the “TELOGEN Hair counts Difference of CFBs Mean +/− SE” value was 0.51 +/− 1.21 hairs/cm^2. For the same molecule, in data set [4] (setting [6]), the “number of telogen (resting) hairs (in words)” value is reported as “little or no effect”.
